Experimental data as given in EP0614464B1, “PEPTIDES AND ANTIBODIES FOR TREATMENT OF RHEUMATOID ARTHRITIS” (PEPTIDE THERAPEUTICS LIMITED, priority 1991, dated 1993).

How the values were obtained:
IgA-α1AT complex = experiment: HPLC analysis of in vitro dissociation of purified IgA-α1AT complex; assay type: biochemical, human; conditions: for HPLC minimum: Table 5, minimum concentration giving complex : free IgA ratio at 20% (base-line 14%), 90 minutes at 37°C, >500µM = no complex dissociation at highest concentration tested; for activity: comment in words on Tables 3-5, assay not given, fits the HPLC values
Protocol: The ability of the peptides of the invention to dissociate purified IgA-α1AT complex in vitro was tested as described below. The anti-rheumatic drug D-penicillamine and other synthetic peptides were used as controls. […] The sample was monitored at wavelength 206nm at a flow rate of 1ml/minute with phosphate buffer (0.1M) pH 7.1. […] They represent the ability of the peptides to dissociate the IgA-α1AT complex in vitro. In these experiments, the base-lines level comprises a complex : free IgA ratio of 14% . The minimum concentration of peptide taken to produce a positive dissociation effect is that which results in a complex: free IgA ratio at 20%. In the results tables, all the peptide values are expressed in µMoles.

[1] = tested on: alternative complement (C3) pathway; experiment: Inhibition of C3-activation: preventing IgA-α1AT complex from activating the alternative complement pathway, rabbit erythrocyte haemolysis read-out; assay type: biochemical, human; conditions: Table 5; minimum concentration needed to prevent C3 activation
[2] = tested on: mouse macrophage cell line (PU 518); experiment: Macrophage inhibition assay: IgA-α1AT complex-stimulated release of lysosomal enzymes; assay type: cell-based
Protocol: A mouse macrophage cell line (PU 518) was stimulated to release lysosomal enzymes by the addition of purified human IgA-α1AT complex. The degree to which this release was then inhibited by the peptides or other drugs was investigated, with the degree of inhibition being indicative of activity; the concentration of peptide or other test drugs giving 50% inhibition being recorded. Briefly the method was as follows:
25µl of peptide or drug was double diluted in […] + 10% foetal calf serum (FCS) in a sterile tissue culture 96 well plate. 25µl of IgA-α1AT complex in RPMI 1640 +10% FCS at about 0.2mg/ml was then added to all wells. 50µl of cells at a concentration of 2 x 10^6 cells/ml in RPMI 1640 + 10% FCS was then added to each well.
Control wells of cells alone and cells + IgA-α1AT complex were also prepared. The plate was then gently mixed and incubated overnight (16hr) at 37°C in a 4% CO2 atmosphere. Plates were then centrifuged at 1200 rpm for 10 minutes in a bench top centrifuge.
40µl of supernatant was then taken from each well and added to a 96 well polystyrene assay plate, to which was added 40µl of 160mM acetate buffer (pH 4.3) containing 2mM phenolphthalein-β-D-glucuronic acid. To obtain a standard curve, dilutions of phenolphthalein in acetate buffer from 100-5µg/ml were also added to separate wells in the assay plate.
The plates were then incubated at 37°C for 4 hours before 150µl of 0.2M glycine/NaOH buffer (pH 10.6) containing 0.2M NaCl was added to stop the reaction.
Plates were then shaken for 3 minutes before the optical density at 570nm was read on a plate reader, and the amount of β-D-glucuronic acid released from the cells calculated. The concentration of peptide or drug giving 50% inhibition of release was then noted.
The results for the macrophage inhibition assays are expressed as the concentration needed to prevent 50% release of β-glucoromidase.

[3] = tested on: alternative complement (C3) pathway; experiment: Inhibition of C3-activation: preventing IgA-α1AT complex from activating the alternative complement pathway, rabbit erythrocyte haemolysis read-out; assay type: biochemical, human; conditions: Table 5; minimum concentration needed to prevent C3 activation; remark: listed apart in the source
Protocol: Various peptides were tested for their ability to prevent the IgA-α1AT complex from activating the alternative complement (C3) pathway.
The method of measuring the capacity to activate the alternative complement pathway by the non-immune IgA-α1AT complex and the subsequent inhibition of this activation by anti-rheumatic peptides is described below.
This method was based on the method described by Riches and Stanworth, Immunology Letters, 1980, 1, 363,366, with modification to miniaturise it thus allowing the assay to be carried out on microtitre plates.
The initial observation by Platts-Mills and Ishizaka (J Immunol. (1974) 113, 348,358) that low dilutions of fresh normal human serum, from which calcium had been removed by chelation with 10mM EGTA to block the classical complement pathway, caused greater than 90% haemolysis of unsensitised rabbit erythrocytes when incubated at 37°C was employed in this assay.
The non-immune complex IgA-α1AT had been shown in the past to be the only known soluble complex to activate the alternative pathway complement and […] of the rabbit erythrocytes. This inhibition required biologically active complex.
The buffers solutions required in this assay were (a) Total lysis buffer (1% Triton100 in ultra pure water), (b) Alternative pathway complement fixation diluent (APCFD) which was:- • 83 volumes CFD, DH 7.2 (1 oxoid tablet: 100ml UPW) • 10 volumes 0.1M EGTA pH 7.2 • 7 volumes MgCl2 pH 7.2
Blood was obtained by venipuncture from a healthy human individual. The blood was allowed to clot for 1 hour at room temperature and then stored overnight at 4°C. The serum was removed and stored at -70°C in lml aliquots. For use, the serum was defrosted and 100µl of 0.1m EGTA pH 7.2 and 70µl O.lm MgCl2 pH 7.2 was added.
Rabbit red blood cells (RBC) were obtained by venipuncture of a healthy rabbit and collected into 0.1M citrate buffer pH 6.2. The RBC were washed 3 times in citrate buffer and the cells were stored in this buffer which was changed every week. It was possible to store cells in this way for 3 weeks. Peptides
The peptides were synthesised as described in Example 1 and made up in UPW to lmM. They were kept frozen at -70°C prior to use.
This was prepared as previously described in Example 2. It was kept frozen in small aliquots prior to use.
Using a round bottomed welled flexible microtitre plate 100µl neat serum (with added EGTA and MgCl2) was added to the first wells in duplicate. This was double diluted out, with APCFD to give a volume of 50µl well. 8 test wells (+ duplicates) were sufficient. 8 wells were prepared as a positive control - (100µl 1% Triton/UPW). 8 wells were prepared as a negative control - (100µl APCFD (Blank)).
50µl of APCFD was added to the test wells and 50µl of 1% rabbit RBC was added to all wells. The plate was then incubated at 37°C for 30 minutes and then centrifuged for 10 minutes at 2000 rpm.
75µl of the supernatant was carefully removed and plated onto a flat bottom welled microtitre plate. The plates were then read at 410nm interference, 690nm reference. The zero or blank value was calculated as the mean value of negative control wells and using the mean of the positive control wells, the percentage lysis for serum dilutions was calculated. In future assays the serum dilution in which lysis was approx. 80% of Rb RBC was used. This was usually in the range 1:4 - 1:6 dilution (ie. lml serum : 4ml APCFD - 6ml APCFD).
A 1:1 dilution of IgA-α1AT complex was made with twice concentrated APCFD. 100µl of this 1:1 dilution of complex was added to the first wells in duplicate. This was double diluted out with APCFD to give 50 µl per well. 50µl of the predetermined dilution of serum (see (i) above) was added to each well. Positive and negative control wells as described in (a) above and wells containing serum alone were used as controls. The plates were incubated at 37°C for 30 minutes and then centrifuged at 2000 rpm for 1 minute. […]

[4] = Table 5, head prints no unit, b70 says all values of the results tables are in µMoles, concentration needed to prevent 50% release of β-glucoromidase

Compound	HPLC minimum (IgA-α1AT complex) [µM]	activity (IgA-α1AT complex)	C' minimum [1] [µM]	IC50 [2, 4] [µM]	IC50 ([2]; Table 5; head prints no unit, b70 says all values of the results tables are in µMoles; concentration needed to prevent 50% release of β-glucoromidase) [µM]	C' minimum [3] [µM]
CC(=O)N[C@@H](CS)C(=O)O [N-acetyl Cysteine]	500	relatively inactive	4			
N[C@@H](CCC(=O)N[C@@H](CS)C(=O)NCC(=O)O)C(=O)O [Glutathione]	500	relatively inactive	31			
CC(C)(S)[C@@H](N)C(=O)O [D-Penicillamine]	250		31	500		
N[C@@H](CS)C(=O)O [Cysteine]	250		16	500		
HCCGKnh2 [Peptide 147, reference compound]	10				250	32
